{"source": "patent US7943603B2", "about": "“Medical uses of a selective estrogen receptor modulator in combination with sex steroid precursors” (Endorecherche, Inc., priority 1998, dated 2011)", "key": {"[1]": {"test_system": "rat", "assay": "Urine and serum biochemical parameters of bone metabolism", "assay_type": "in vivo", "details": "DHEA 10 mg percutaneously, EM-800 75 μg orally, once daily, alone or in combination, 9 months", "from_the_text": "(§1) The animals were randomly divided into groups each containing 20 rats with the exception of 40 animals in the control group. […] Treatment was initiated 3 days before the oral administration of DMBA. EM-800 was synthesized in the Medicinal Chemistry Division of our laboratory while DHEA was purchased from Steraloids Inc., Wilton, N.H.\n(§2) Twenty-four-hour urinary samples were collected at the end of the experiment from the first 9 rats of each group following transfer in metabolic cages (Allentown Caging Equipment Co., Allentown, N.J.). Two urinary samples were collected and analyzed on different days for each animal in order to minimize the influence of daily variation. Therefore, each value shown represents the mean of the two measurements performed on two different days. 0.5 ml of toluene was added into the urine collecting tubes to prevent urine evaporation and bacterial growth and the urinary volume was recorded. Trunk blood was collected at sacrifice and was allowed to clot at 4° C. overnight before centrifugation at 3000 rpm for 30 min.\n(§3) Fresh samples were used for the assay of urinary creatinine, calcium, and phosphorus as well as serum total alkaline phosphatase (tALP) activity, cholesterol and triglycerides. These biochemical parameters were measured automatically with a Monarch 2000 Chemistry System (Instrumentation Laboratory Co. Lexington, Mass.) under Good Laboratory Practice conditions. Urinary hydroxyproline was measured as described (Podenphant et al., Clinica Chimica Acta 142: 145-148, 1984)."}, "[2]": {"test_system": "female rat", "assay": "Bone mineral density (DEXA) after 9-month treatment", "assay_type": "in vivo", "details": "DHEA 10 mg percutaneously, EM-800 75 μg orally, once daily, alone or in combination, 9 months", "experimental": "Female Sprague-Dawley rats [Crl:CD(SD)Br] were obtained at 44-46 days of age from Charles River Canada Inc. (St. Constant, Quebec) and housed 2 per cage in a light (12 h light/day; lights on at 07:15 h)-and temperature (22±2° C.)-controlled environment. Animals received Purina rodent chow and tap water ad libitum. The animal studies were conducted in a Canadian Council on Animal Care (CCAC)-approved facility in agreement with the CCAC Guide for Care and Use of Experimental Animals.\nas §1\nRats were anesthetized with an i.p. injection of ketamine hydrochloride and diazepam at doses of 50 and 4 mg/kg B.W., respectively. The whole skeleton and the right femur were scanned using dual energy X-ray absorptiometry (DEXA; QDR 2000-7.10C, Hologic, Waltham, Mass.) equipped with a Regional High Resolution software. The scan field sizes were 28.110×17.805 cm and 5.0×1.902 cm, the resolutions were 0.1511×0.0761 cm and 0.0254×0.0127 cm, while the scan speeds were 0.3608 and 0.0956 mm/sec for total skeleton and femur, respectively. Both bone mineral content (BMC) and bone mineral density (BMD) of total skeleton, lumbar spine, and femur were measured on the scan images of total skeleton and femur."}, "[3]": {"test_system": "ovariectomized (OVX) nude mice supplemented with estrone", "assay": "Uterine, vaginal and body weight in OVX nude mice bearing ZR-75-1 xenografts", "details": "OVX+E1 nude mice, 9.5 months", "experimental": "A posteriori pairwise comparisons were performed using Fisher's test for least significant difference. Main effects and the interaction of treatments on body weight and organ weight were analyzed using a standard two-way ANOVA with interactions. All ANOVAs were performed using SAS program (SAS Institute, Cary, N.C., USA). Significance of differences were declared using a 2-tailed test with an overall level of 5%."}, "[4]": {"test_system": "rat", "assay": "Serum triglyceride and cholesterol levels after 9-month treatment", "assay_type": "in vivo", "details": "DHEA 10 mg percutaneously, EM-800 75 μg orally, once daily, alone or in combination, 9 months", "from_the_text": "as §1, §2, §3"}, "[5]": {"target": "T1, estrogen receptor (Homo sapiens, UniProt P03372)", "T1 sequence (P03372 1-595)": "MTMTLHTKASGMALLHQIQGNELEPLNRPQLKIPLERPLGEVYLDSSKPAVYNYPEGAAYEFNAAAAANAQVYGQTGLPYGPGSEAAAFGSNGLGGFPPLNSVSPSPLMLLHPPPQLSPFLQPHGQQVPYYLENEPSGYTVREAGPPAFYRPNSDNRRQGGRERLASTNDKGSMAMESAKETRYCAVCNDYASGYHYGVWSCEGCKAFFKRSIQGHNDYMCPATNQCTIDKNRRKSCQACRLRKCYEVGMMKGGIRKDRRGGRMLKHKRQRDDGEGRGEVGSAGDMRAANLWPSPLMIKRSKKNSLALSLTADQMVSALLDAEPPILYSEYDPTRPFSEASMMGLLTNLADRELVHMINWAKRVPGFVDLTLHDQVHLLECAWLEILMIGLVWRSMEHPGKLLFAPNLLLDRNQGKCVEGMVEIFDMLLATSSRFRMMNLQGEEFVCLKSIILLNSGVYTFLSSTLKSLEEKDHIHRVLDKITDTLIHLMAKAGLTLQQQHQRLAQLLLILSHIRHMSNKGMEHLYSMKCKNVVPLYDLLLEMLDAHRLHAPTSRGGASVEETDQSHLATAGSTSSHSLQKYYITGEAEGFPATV", "assay": "Testing of antiestrogens for function as SERM"}, "[6]": {"test_system": "human ZR-75-1 breast tumor xenografts", "assay": "Growth of human ZR-75-1 breast tumor xenografts in OVX nude mice supplemented with estrone", "details": "OVX+E1 0.5 μg nude mice, 9.5 months; for average tumor weight: E1 control 1.12±0.26"}}, "note": "“And” between values parts separate entries of the source, which are not always exact repeats. Equal values may be shown once. “Also recorded” adds a separate entry of the source.", "data": [{"smiles": "CC1=C(c2ccc(OC(=O)C(C)(C)C)cc2)[C@H](c2ccc(OCCN3CCCCC3)cc2)Oc2cc(OC(=O)C(C)(C)C)ccc21", "note": "[EM-800, (+)-7-pivaloyloxy-3-(4′-pivaloyloxyphenyl)-4-methyl-2-(4″-(2′″-piperidinoethoxy)phenyl)-2H-benzopyran]", "values": [{"measurement": "decrease of daily urinary calcium excretion versus control", "setting": "[1]", "result": "no statistically significant influence"}, {"measurement": "decrease of daily urinary phosphorus excretion versus control", "setting": "[1]", "result": "no statistically significant influence"}, {"measurement": "decrease of urinary hydroxyproline/creatinine ratio versus control", "setting": "[1]", "result": 48, "unit": "%"}, {"measurement": "increase of serum total alkaline phosphatase (tALP) activity versus control", "setting": "[1]", "result": "no statistically significant influence; also recorded: no effect"}, {"measurement": "BMD FEMUR", "setting": "[2]", "result": "0.3097 ± 0.0047", "unit": "g/cm2"}, {"measurement": "BMD LUMBAR SPINE", "setting": "[2]", "result": "0.1888 ± 0.0045", "unit": "g/cm2"}, {"measurement": "BMD TOTAL SKELETON", "setting": "[2]", "result": "0.1356 ± 0.0017", "unit": "g/cm2"}, {"measurement": "increase in BMD of femur versus control", "setting": "[2]", "result": "no significant change"}, {"measurement": "increase in BMD of lumbar spine versus control", "setting": "[2]", "result": "no significant change"}, {"measurement": "increase in BMD of total skeleton versus control", "setting": "[2]", "result": "no significant change"}, {"measurement": "vaginal weight", "setting": "[3]; EM-800 15 μg daily", "result": "23 ± 1", "unit": "mg"}, {"measurement": "uterine weight", "setting": "[3]; EM-800 15 μg orally daily", "result": "49 ± 3", "unit": "mg"}, {"measurement": "vaginal weight", "setting": "[3]; EM-800 50 μg daily", "result": "15 ± 1", "unit": "mg"}, {"measurement": "uterine weight", "setting": "[3]; EM-800 50 μg orally daily", "result": "36 ± 2", "unit": "mg"}, {"measurement": "vaginal weight", "setting": "[3]; EM-800 100 μg daily", "result": "11 ± 1", "unit": "mg"}, {"measurement": "uterine weight", "setting": "[3]; EM-800 100 μg orally daily", "result": "32 ± 1", "unit": "mg"}, {"measurement": "effect on body weight adjusted for tumor weight", "setting": "[3]", "result": "No significant effect"}, {"measurement": "decrease of serum cholesterol levels", "setting": "[4]", "result": 45, "unit": "%"}, {"measurement": "decrease of serum triglyceride levels", "setting": "[4]", "result": 72, "unit": "%"}, {"measurement": "function as SERM", "setting": "[5]", "result": "found to function as SERMs"}, {"measurement": "Complete response, (%)", "setting": "[6]; EM-800 15 μg orally daily", "result": 29.4, "unit": "%"}, {"measurement": "Complete response, number", "setting": "[6]; EM-800 15 μg orally daily", "result": 5}, {"measurement": "Partial response, (%)", "setting": "[6]; EM-800 15 μg orally daily", "result": 5.9, "unit": "%"}, {"measurement": "Partial response, number", "setting": "[6]; EM-800 15 μg orally daily", "result": 1}, {"measurement": "Progression, (%)", "setting": "[6]; EM-800 15 μg orally daily", "result": 35.3, "unit": "%"}, {"measurement": "Progression, number", "setting": "[6]; EM-800 15 μg orally daily", "result": 6}, {"measurement": "Stable response, (%)", "setting": "[6]; EM-800 15 μg orally daily", "result": 29.4, "unit": "%"}, {"measurement": "Stable response, number", "setting": "[6]; EM-800 15 μg orally daily", "result": 5}, {"measurement": "inhibition of estrogen-stimulated ZR-75-1 tumor size", "setting": "[6]; EM-800 15 μg orally daily", "result": "88% and 87.5%"}, {"measurement": "average tumor weight", "setting": "[6]; EM-800 15 μg orally daily", "result": "0.08 ± 0.03", "unit": "g"}, {"measurement": "Complete response, (%)", "setting": "[6]; EM-800 50 μg orally daily", "result": 25.0, "unit": "%"}, {"measurement": "Complete response, number", "setting": "[6]; EM-800 50 μg orally daily", "result": 4}, {"measurement": "Partial response, (%)", "setting": "[6]; EM-800 50 μg orally daily", "result": 18.8, "unit": "%"}, {"measurement": "Partial response, number", "setting": "[6]; EM-800 50 μg orally daily", "result": 3}, {"measurement": "Progression, (%)", "setting": "[6]; EM-800 50 μg orally daily", "result": 25.0, "unit": "%"}, {"measurement": "Progression, number", "setting": "[6]; EM-800 50 μg orally daily", "result": 4}, {"measurement": "Stable response, (%)", "setting": "[6]; EM-800 50 μg orally daily", "result": 31.2, "unit": "%"}, {"measurement": "Stable response, number", "setting": "[6]; EM-800 50 μg orally daily", "result": 5}, {"measurement": "inhibition of estrogen-stimulated ZR-75-1 tumor size", "setting": "[6]; EM-800 50 μg orally daily", "result": "93% and 93.5%"}, {"measurement": "average tumor weight", "setting": "[6]; EM-800 50 μg orally daily", "result": "0.03 ± 0.01", "unit": "g"}, {"measurement": "Complete response, (%)", "setting": "[6]; EM-800 100 μg orally daily", "result": 50.0, "unit": "%"}, {"measurement": "Complete response, number", "setting": "[6]; EM-800 100 μg orally daily", "result": 8}, {"measurement": "Partial response, (%)", "setting": "[6]; EM-800 100 μg orally daily", "result": "0 (0) %"}, {"measurement": "Partial response, number", "setting": "[6]; EM-800 100 μg orally daily", "result": "0 (0)"}, {"measurement": "Progression, (%)", "setting": "[6]; EM-800 100 μg orally daily", "result": 31.2, "unit": "%"}, {"measurement": "Progression, number", "setting": "[6]; EM-800 100 μg orally daily", "result": 5}, {"measurement": "Stable response, (%)", "setting": "[6]; EM-800 100 μg orally daily", "result": 18.8, "unit": "%"}, {"measurement": "Stable response, number", "setting": "[6]; EM-800 100 μg orally daily", "result": 3}, {"measurement": "inhibition of estrogen-stimulated ZR-75-1 tumor size", "setting": "[6]; EM-800 100 μg orally daily", "result": 94, "unit": "%"}, {"measurement": "average tumor weight", "setting": "[6]; EM-800 100 μg orally daily", "result": "0.04 ± 0.03", "unit": "g"}]}]}
